Values of other authors, collected in patent US20190382321A1, “ACID-RESISTANT UREASE INHIBITOR ADDUCT-[…] COMPOSITIONS” (Koch Agronomic Services, LLC, priority 2017, published 2019).

Settings: blend of NBPT-containing urea and one or more acidic fertilizers

CCCCNP(N)(N)=S [NBPT, N-(n-butyl) thiophosphoric triamide]
time to almost complete decomposition after blending: 1-2 weeks
